Measurements as given in patent publication US6673574B2, “Oral delivery of peptides using enzyme-cleavable membrane translocators” (Unigene Laboratories Inc., priority 2000, dated 2004).
Like-named read-outs stand apart in the source and are kept apart here.

Legend:
[1] = Absorption from rat duodenum: intraduodenal injection, plasma concentration by competitive enzyme immunoassay; assay type: in vivo; conditions: for Cmax: peak plasma concentration by inspection
Method: Female Sprague-Dawley rats (250-275 g) (n=4 for each peptide) were anesthetized with ketamine and xylazine prior to the insertion of a cannula in the carotid artery. The cannula was fitted to a three way valve through which blood was sampled and replaced with physiological saline containing heparin. A midline incision was made in the abdominal cavity, and 0.45 mL of either sCT-gly (10 mg/mL) or OmpA-MT3-sCT-gly (10 mg/mL) in 0.5M citric acid was injected directly into the duodenum. Blood (0.5 ml) was collected before and at 5, 15, 30, 45 and 60 minutes after administration of the peptides. The blood was centrifuged, and the concentration (± SEM [standard error of the mean]) of sCT-gly or OmpA-MT3-sCT-gly in the plasma supernatant was determined by a competitive enzyme immunoassay (EIA). Peak plasma concentration (Cmax) was determined by inspection. The absolute bioavailbilty of each peptide (relative to an intravenous dose of sCT [salmon calcitonin]) was calculated from plots of the plasma concentration of each peptide as a function to time.

[2] = cited from earlier work
[3] = Blood levels of salmon calcitonin after direct injection into duodenum, ileum or colon of rats; assay type: in vivo; conditions: rat, other: injected directly into the duodenum, active components injected directly into duodenum
Text: The acid is believed to lower the local intestinal pH (where the active agent has been released) to levels below the optimal range for many intestinal proteases and other intestinal enzymes. This decrease in pH reduces the proteolytic activity of the intestinal proteases, thus affording protection to the peptide and the membrane translocator from potential degradation. The activity of these proteases is diminished by the temporarily acidic environment provided by the invention. It is preferred that sufficient acid be provided that local intestinal pH is lowered temporarily to 5.5 or below, preferably 4.7 or below and more preferably 3.5 or below. The sodium bicarbonate test described below (in the section captioned “the pH-Lowering Agent”) is indicative of the required acid amount.

[4] = 0 min (before administration), 0.45 mL of 10 mg/mL in 0.5M citric acid into duodenum, ± SEM, n=4

CC(C)C[C@H](NC(=O)[C@H](CCCCN)NC(=O)CNC(=O)[C@H](CC(C)C)NC(=O)[C@@H](NC(=O)[C@@H]1CSSC[C@H](N)C(=O)N[C@@H](CO)C(=O)N[C@@H](CC(N)=O)C(=O)N[C@@H](CC(C)C)C(=O)N[C@@H](CO)C(=O)N[C@@H]([C@@H](C)O)C(=O)N1)C(C)C)C(=O)N[C@@H](CO)C(=O)N[C@@H](CCC(N)=O)C(=O)N[C@@H](CCC(=O)O)C(=O)N[C@@H](CC(C)C)C(=O)N[C@@H](Cc1c[nH]cn1)C(=O)N[C@@H](CCCCN)C(=O)N[C@@H](CC(C)C)C(=O)N[C@@H](CCC(N)=O)C(=O)N[C@H](C(=O)N[C@@H](Cc1ccc(O)cc1)C(=O)N1CCC[C@H]1C(=O)N[C@@H](CCCNC(=N)N)C(=O)N[C@H](C(=O)N[C@@H](CC(N)=O)C(=O)N[C@H](C(=O)NCC(=O)N[C@@H](CO)C(=O)NCC(=O)N[C@H](C(=O)N1CCC[C@H]1C(=O)NCC(=O)O)[C@@H](C)O)[C@@H](C)O)[C@@H](C)O)[C@@H](C)O [sCT-gly, CYS-SER-ASN-LEU-SER-THR-CYS-VAL-LEU-GLY-LYS-LEU-SER-GLN-GLU-LEU-HIS-LYS-LEU-GLN-THR-TYR-PRO-ARG-THR-ASN-THR-GLY-SER-GLY-THR-PRO-GLY]
plasma concentration [1, 4]: 0.00 ng/mL | Cmax ([1]; female, Sprague-Dawley, 4.5 mg, intraduodenal, rat, ± SEM, read-out: Cmax): 223 ± 44.8 ng/mL | bioavailability ([1]; female, Sprague-Dawley, plasma, other: injected directly into the duodenum (intraduodenal), 4.5 mg, relative to an intravenous dose of sCT, intraduodenal, rat, ± SEM, read-out: Absolute bioavailability): 0.92 ± 0.23% | level at 5 min ([1]; female, Sprague-Dawley, rat, plasma, 4.5 mg per animal, 5 min after intraduodenal injection, ± SEM, n=4): 201 ± 73.7 ng/mL | level at 0.25 h ([1]; female, Sprague-Dawley, rat, plasma, 4.5 mg per animal, 15 min after intraduodenal injection, ± SEM, n=4): 116 ± 39.1 ng/mL | level at 0.5 h ([1]; female, Sprague-Dawley, rat, plasma, 4.5 mg per animal, 30 min after intraduodenal injection, ± SEM, n=4): 223 ± 44.8 ng/mL | level at 0.75 h ([1]; female, Sprague-Dawley, rat, plasma, 4.5 mg per animal, 45 min after intraduodenal injection, ± SEM, n=4): 151 ± 107 ng/mL | level at 1 h ([1]; female, Sprague-Dawley, rat, plasma, 4.5 mg per animal, 60 min after intraduodenal injection, ± SEM, n=4): 179 ± 76.2 ng/mL

CC(C)C[C@H](NC(=O)[C@H](CCCCN)NC(=O)CNC(=O)[C@H](CC(C)C)NC(=O)[C@@H](NC(=O)[C@@H]1CSSC[C@H](N)C(=O)N[C@@H](CO)C(=O)N[C@@H](CC(N)=O)C(=O)N[C@@H](CC(C)C)C(=O)N[C@@H](CO)C(=O)N[C@@H]([C@@H](C)O)C(=O)N1)C(C)C)C(=O)N[C@@H](CO)C(=O)N[C@@H](CCC(N)=O)C(=O)N[C@@H](CCC(=O)O)C(=O)N[C@@H](CC(C)C)C(=O)N[C@@H](Cc1c[nH]cn1)C(=O)N[C@@H](CCCCN)C(=O)N[C@@H](CC(C)C)C(=O)N[C@@H](CCC(N)=O)C(=O)N[C@H](C(=O)N[C@@H](Cc1ccc(O)cc1)C(=O)N1CCC[C@H]1C(=O)N[C@@H](CCCNC(=N)N)C(=O)N[C@H](C(=O)N[C@@H](CC(N)=O)C(=O)N[C@H](C(=O)NCC(=O)N[C@@H](CO)C(=O)NCC(=O)N[C@H](C(=O)N1CCC[C@H]1C(N)=O)[C@@H](C)O)[C@@H](C)O)[C@@H](C)O)[C@@H](C)O [salmon calcitonin]
blood levels more than two hours after injection ([2]; conventional dosages): no detectable blood levels | peak level at which some patients report gastrointestinal distress ([2]; patients): ≥ 200 picograms per milliliter | half-life ([2]; subcutaneous administration in man): 20 to 40 min | peak serum concentration ([2]; subcutaneous, 100 International units): about 250 picograms per milliliter | Tmax [3]: 5 to 15 min

B1: OmpA-MT3-sCT-gly: salmon calcitonin-Gly fused to two MTs, the unprocessed OmpA signal peptide and MTS3 (HIV TAT domain), with TRP-VAL-ALA cleavable sequence (protein)
chain: MKKTAIAIAVALAGFATVAQAYGRKKRRQRRRWVACSNLSTCVLGKLSQELHKLQTYPRTNTGSGTPG
modifications: ends and bridges not checked
plasma concentration [1, 4]: 0.00 ng/mL | plasma concentration ([1]; 5 min after intraduodenal injection, ± SEM, n=4): 563.07 ± 150.44 ng/mL | plasma concentration ([1]; 15 min after intraduodenal injection, ± SEM, n=4): 1861.86 ± 713.20 ng/mL | plasma concentration ([1]; 30 min after intraduodenal injection, ± SEM, n=4): 5603.76 ± 1749.75 ng/mL | plasma concentration ([1]; 45 min after intraduodenal injection, ± SEM, n=4): 3879.76 ± 713.62 ng/mL | plasma concentration ([1]; 60 min after intraduodenal injection, ± SEM, n=4): 6060.70 ± 2462.69 ng/mL | Cmax relative to that of sCT-gly ([1]; intraduodenal, rat): more than 25 fold | Cmax ([1]; intraduodenal, rat, ± SEM): 6060.70 ± 2462.69 ng/mL | Absolute bioavailability ([1]; relative to an intravenous dose of sCT, intraduodenal, rat, ± SEM): 21.26 ± 6.23%
